In ChEMBL document CHEMBL5727449, “Toll-like receptor 7 (TLR7) agonists having heteroatom-linked aromatic moieties, conjugates thereof, and methods and uses therefor” (2019):

Biological target: T1, Toll-like receptor 7 (Homo sapiens, UniProt Q9NYK1)
T1 sequence (Q9NYK1 whole entry): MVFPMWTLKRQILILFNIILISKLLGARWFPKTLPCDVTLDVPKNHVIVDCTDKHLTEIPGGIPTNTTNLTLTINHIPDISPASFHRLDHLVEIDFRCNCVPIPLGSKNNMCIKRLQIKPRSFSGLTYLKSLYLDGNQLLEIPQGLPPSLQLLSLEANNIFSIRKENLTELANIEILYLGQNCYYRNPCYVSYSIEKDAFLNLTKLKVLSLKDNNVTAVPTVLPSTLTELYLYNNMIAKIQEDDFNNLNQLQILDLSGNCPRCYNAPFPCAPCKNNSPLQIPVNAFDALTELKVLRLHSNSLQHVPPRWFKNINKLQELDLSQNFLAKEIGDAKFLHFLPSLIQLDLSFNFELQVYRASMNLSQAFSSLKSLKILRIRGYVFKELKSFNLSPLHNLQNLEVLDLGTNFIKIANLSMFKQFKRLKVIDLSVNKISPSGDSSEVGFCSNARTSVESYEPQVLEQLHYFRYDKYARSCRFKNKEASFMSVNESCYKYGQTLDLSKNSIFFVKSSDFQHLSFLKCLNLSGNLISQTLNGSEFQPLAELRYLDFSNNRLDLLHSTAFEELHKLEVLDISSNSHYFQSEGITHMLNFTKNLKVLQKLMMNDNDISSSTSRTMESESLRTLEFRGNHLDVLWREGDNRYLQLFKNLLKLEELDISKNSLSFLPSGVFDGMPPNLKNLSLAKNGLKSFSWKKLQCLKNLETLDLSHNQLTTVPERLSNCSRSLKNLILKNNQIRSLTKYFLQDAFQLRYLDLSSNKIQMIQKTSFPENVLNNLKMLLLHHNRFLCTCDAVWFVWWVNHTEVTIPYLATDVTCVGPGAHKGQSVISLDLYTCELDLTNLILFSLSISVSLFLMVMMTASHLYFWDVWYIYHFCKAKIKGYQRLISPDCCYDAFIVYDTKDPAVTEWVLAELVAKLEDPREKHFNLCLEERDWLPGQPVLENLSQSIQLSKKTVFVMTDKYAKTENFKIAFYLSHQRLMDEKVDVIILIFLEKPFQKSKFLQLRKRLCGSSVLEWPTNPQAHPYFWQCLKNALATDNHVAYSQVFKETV
Experiment: HEK-Blue™ TLR7 cells were added to each well of a 384-well tissue-culture plate (15,000 cells per well) and incubated 16-18 h at 37° C., 5% CO2. Compounds (100 nl) were dispensed into wells containing the HEK-Blue™ TLR cells and the treated cells were incubated at 37° C., 5% CO2. After 18 h treatment ten microliters of freshly-prepared Quanti-Blue™ reagent (Invivogen) was added to each well, incubated for 30 min (37° C., 5% CO2) and SEAP levels measured using an Envision plate reader (OD=620 nm).

Structure (SMILES) | EC50 [nM]
CCCCOc1nc(N)c2nc(O)n(Cc3cccc(Oc4cccc(CNC5CCC5)c4)c3)c2n1 | 435
CCCCOc1nc(N)c2nc(O)n(Cc3ccc(Oc4ccc(CN5CCC5)cc4)c(F)c3)c2n1 | 1.12
CCCCOc1nc(N)c2nc(O)n(Cc3ccc(Oc4ccc(CNCC(C)C)nc4)nc3)c2n1 | 2.22
CCCCOc1nc(N)c2nc(O)n(Cc3ccc(Oc4cccc(CNCC(C)C)n4)cc3)c2n1 | 2.4
CCCCOc1nc(N)c2nc(O)n(Cc3ccc(Oc4ccc(CNCC(C)C)cc4)c(F)c3)c2n1 | 0.45
CCCCOc1nc(N)c2nc(O)n(Cc3ccc(Nc4ccc(CN5CCCC5)cc4)nc3)c2n1 | 1.56
CCCCOc1nc(N)c2nc(O)n(Cc3ccc(Oc4ccc(CO)cc4)nc3)c2n1 | 12
CCCCOc1nc(N)c2nc(O)n(Cc3ccc(Oc4ccc(CNC5CCOCC5)nc4)nc3)c2n1 | 1.12
CCCCOc1nc(N)c2nc(O)n(Cc3ccc(Oc4ccc(CNC)cc4)nc3)c2n1 | 1.2
CCCCOc1nc(N)c2nc(O)n(Cc3ccc(Oc4ccc(CNC5CCOCC5)cc4)c(F)c3)c2n1 | 1.2
CCCCOc1nc(N)c2nc(O)n(Cc3ccc(Oc4ccc(CNCCC#N)cc4)nc3)c2n1 | 0.35
CCCCOc1nc(N)c2nc(O)n(Cc3ccc(Oc4ccc(CNCCOC)cc4)c(F)c3)c2n1 | 1.14
CCCCOc1nc(N)c2nc(O)n(Cc3ccc(Oc4cccc(CNCCC#N)n4)cc3)c2n1 | 3.57
CCCCOc1nc(N)c2nc(O)n(Cc3ccc(Oc4ccc(CNCCO)nc4)nc3)c2n1 | 1.6
CCCCOc1nc(N)c2nc(O)n(Cc3ccc(Oc4ccc(CNC5CCC5)cc4)nc3)c2n1 | 0.91
CCCCOc1nc(N)c2nc(O)n(Cc3ccc(Oc4ccc(CN5CCN(C)CC5)nc4)nc3)c2n1 | 1.77
CCCCOc1nc(N)c2nc(O)n(Cc3ccc(Oc4ccc(CNCC(F)F)cc4)nc3)c2n1 | 2.9
CCCCOc1nc(N)c2nc(O)n(Cc3cccc(Oc4cccc(CNC)c4)c3)c2n1 | 455
CCCCOc1nc(N)c2nc(O)n(Cc3ccc(Oc4ccc(CNCC(F)F)nc4)nc3)c2n1 | 1.8
CCCCOc1nc(N)c2nc(O)n(Cc3cccc(Oc4cccc(CNCCC#N)c4)c3)c2n1 | 279

Structure (SMILES) | EC50 [nM]
CCCCOc1nc(N)c2nc(O)n(Cc3ccc(Oc4ccc(CNCc5ccccc5)cc4)cc3)c2n1 | 13
CCCCOc1nc(N)c2nc(O)n(Cc3cccc(Oc4cccc(CN5CCNCC5)c4)c3)c2n1 | 942
CCCCOc1nc(N)c2nc(O)n(Cc3cccc(Oc4cccc(CNCCS(C)(=O)=O)c4)c3)c2n1 | 154
CCCCOc1nc(N)c2nc(O)n(Cc3ccc(Nc4ccc(CNCC(F)F)cc4)nc3)c2n1 | 7.46
CCCCOc1nc(N)c2nc(O)n(Cc3ccc(Oc4ccc(CN5CCN(C)CC5)cc4)c(F)c3)c2n1 | 2.9
CCCCOc1nc(N)c2nc(O)n(Cc3ccc(Oc4ccc(CN5CCOCC5)nc4)nc3)c2n1 | 0.89
CCCCOc1nc(N)c2nc(O)n(Cc3ccc(Nc4ccc(CNCCO)cc4)nc3)c2n1 | 5.8
CCCCOc1nc(N)c2nc(O)n(Cc3ccc(Oc4ccc(CNC5COC5)cc4)nc3)c2n1 | 0.7
CCCCOc1nc(N)c2nc(O)n(Cc3ccc(Oc4ccc(CNC5CCCC5)cc4)nc3)c2n1 | 1.6
CCCCOc1nc(N)c2nc(O)n(Cc3ccc(Oc4ccc(CNC5COC5)cc4)cc3)c2n1 | 1.7
CCCCOc1nc(N)c2nc(O)n(Cc3ccc(Nc4ccc(CNCCS(C)(=O)=O)cc4)nc3)c2n1 | 0.374
CCCCOc1nc(N)c2nc(O)n(Cc3ccc(Oc4ccc(CN5CCOCC5)cc4)c(F)c3)c2n1 | 3.9
CCCCOc1nc(N)c2nc(O)n(Cc3cccc(Oc4cccc(CNC5COC5)c4)c3)c2n1 | 403
CCCCOc1nc(N)c2nc(O)n(Cc3cccc(Oc4cccc(CNC5CC(F)(F)C5)c4)c3)c2n1 | 525
CCCCOc1nc(N)c2nc(O)n(Cc3ccc(Oc4ccc(CNC5CC(F)(F)C5)cc4)nc3)c2n1 | 1.3
CCCCOc1nc(N)c2nc(O)n(Cc3ccc(Oc4ccc(CNCc5ccccc5)cc4)nc3)c2n1 | 5.3
CCCCOc1nc(N)c2nc(O)n(Cc3ccc(Oc4ccc(CNC5CC5)cc4)cc3)c2n1 | 2.1
CCCCOc1nc(N)c2nc(O)n(Cc3ccc(Oc4ccc(CNCCS(C)(=O)=O)cc4)nc3)c2n1 | 1.8
CCCCOc1nc(N)c2nc(O)n(Cc3ccc(Oc4cccc(CNC5CCC5)n4)cc3)c2n1 | 2.51
CCCCOc1nc(N)c2nc(O)n(Cc3ccc(Oc4ccc(CNC(C)C)cc4)nc3)c2n1 | 1.1

Structure (SMILES) | EC50 [nM]
CCCCOc1nc(N)c2nc(O)n(Cc3ccc(Oc4ccc(CNCCO)cc4)cc3)c2n1 | 1.4
CCCCOc1nc(N)c2nc(O)n(Cc3ccc(Nc4ccc(CNCC(C)(C)O)cc4)nc3)c2n1 | 3.2
CCCCOc1nc(N)c2nc(O)n(Cc3ccc(Nc4ccc(CNCC(C)C)cc4)nc3)c2n1 | 7.5
CCCCOc1nc(N)c2nc(O)n(Cc3ccc(Nc4ccc(CNCCOC)cc4)nc3)c2n1 | 1.19
CCCCOc1nc(N)c2nc(O)n(Cc3cccc(Oc4cccc(CNCCO)c4)c3)c2n1 | 375
CCCCOc1nc(N)c2nc(O)n(Cc3ccc(Nc4ccc(CNC5CCC5)cc4)nc3)c2n1 | 1.23
CCCCOc1nc(N)c2nc(O)n(Cc3ccc(Nc4ccc(CNC5CCOCC5)cc4)nc3)c2n1 | 4.3
CCCCOc1nc(N)c2nc(O)n(Cc3ccc(Oc4ccc(CNCC5CC5)cc4)nc3)c2n1 | 1.1
CCCCOc1nc(N)c2nc(O)n(Cc3ccc(Oc4ccc(CNC5CCC5)cc4)c(F)c3)c2n1 | 1.38
CCCCOc1nc(N)c2nc(O)n(Cc3ccc(Oc4ccc(CNC5C6CC5C6)cc4)nc3)c2n1 (stereo not drawn) | 1.3
CCCCOc1nc(N)c2nc(O)n(Cc3ccc(Oc4ccc(CNCC(C)C)cc4)nc3)c2n1 | 0.54
CCCCOc1nc(N)c2nc(O)n(Cc3ccc(Nc4ccc(CN5CCN(C)CC5)cc4)nc3)c2n1 | 4.2
CCCCOc1nc(N)c2nc(O)n(Cc3ccc(Oc4ccc(CNCCOC)nc4)nc3)c2n1 | 0.96
CCCCOc1nc(N)c2nc(O)n(Cc3ccc(Oc4ccc(CNCCO)cc4)c(F)c3)c2n1 | 0.46
CCCCOc1nc(N)c2nc(O)n(Cc3ccc(Oc4cccc(CNC5COC5)n4)cc3)c2n1 | 4.27
CCCCOc1nc(N)c2nc(O)n(Cc3ccc(Oc4ccc(CNC5CCC5)nc4)nc3)c2n1 | 2.07
CCCCOc1nc(N)c2nc(O)n(Cc3ccc(Oc4ccc(CNC5CCC5)cc4)cc3)c2n1 | 2.6
CCCCOc1nc(N)c2nc(O)n(Cc3ccc(Oc4ccc(CNCC(F)F)cc4)c(F)c3)c2n1 | 1.8
